Experimental data reported in ChEMBL document CHEMBL3351420, “Liver X receptor (LXR) partial agonists: biaryl pyrazoles and imidazoles displaying a preference for LXRβ” (Bioorg Med Chem Lett, 2015).
Blank lines part the entries; values can stand above or below the compound they belong to. Active and inactive are the calls of the source. The calls are words filed in the database; no cut-off is given here.

Columns and labels:
Mus musculus [1] = test: Induction of SREBP1c mRNA in C57BL/6 mouse liver at 30 mg/kg for 7 days measured 24 hrs post last dose relative to control; type: organism-based; set-up: dose 30 mg/kg; conditions: C57BL/6, 24 h, read-out: FC
Liver X receptor [2] = target: T1, Liver X receptor (Homo sapiens, UniProt Q13133+P55055); test: Transactivation of LXR (unknown origin) expressed in human HeLa cells by ABCA1 LXREx3 reporter assay; type: cell-based
T1 sequence (Q13133 whole entry): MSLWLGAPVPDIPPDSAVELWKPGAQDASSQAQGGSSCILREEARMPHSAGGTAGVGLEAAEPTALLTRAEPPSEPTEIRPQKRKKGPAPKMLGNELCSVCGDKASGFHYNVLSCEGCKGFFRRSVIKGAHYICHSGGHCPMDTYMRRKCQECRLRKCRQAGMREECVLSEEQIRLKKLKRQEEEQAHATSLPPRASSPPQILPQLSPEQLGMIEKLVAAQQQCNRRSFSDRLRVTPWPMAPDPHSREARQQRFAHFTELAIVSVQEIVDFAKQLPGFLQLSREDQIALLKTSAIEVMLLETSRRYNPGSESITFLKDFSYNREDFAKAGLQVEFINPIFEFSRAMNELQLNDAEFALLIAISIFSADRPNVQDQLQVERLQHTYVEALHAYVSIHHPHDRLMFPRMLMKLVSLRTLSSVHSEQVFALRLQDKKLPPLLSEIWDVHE
T1 sequence (P55055 whole entry): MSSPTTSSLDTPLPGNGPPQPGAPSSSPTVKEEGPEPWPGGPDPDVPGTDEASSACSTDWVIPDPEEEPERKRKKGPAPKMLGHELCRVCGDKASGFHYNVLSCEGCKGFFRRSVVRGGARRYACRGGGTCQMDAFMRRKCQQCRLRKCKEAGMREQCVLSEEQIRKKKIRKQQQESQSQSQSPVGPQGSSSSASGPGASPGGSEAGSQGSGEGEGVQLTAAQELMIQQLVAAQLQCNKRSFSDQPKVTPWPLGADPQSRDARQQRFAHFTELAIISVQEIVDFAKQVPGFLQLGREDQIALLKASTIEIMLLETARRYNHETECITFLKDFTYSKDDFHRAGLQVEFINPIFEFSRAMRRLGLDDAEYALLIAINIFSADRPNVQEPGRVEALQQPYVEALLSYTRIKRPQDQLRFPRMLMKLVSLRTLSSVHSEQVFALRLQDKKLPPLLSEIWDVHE

[3] = target: Retinoic acid receptor RXR-alpha/oxysterols receptor LXR-alpha (Homo sapiens, UniProt Q13133); test: Binding affinity to LXRalpha-RXRalpha heterodimer (unknown origin) expressed in insect cells by scintillation proximity assay
[4] = target: T2, Oxysterols receptor LXR-beta (Homo sapiens, UniProt P55055); test: Transactivation of LXRbeta (unknown origin) expressed in CV1 cells by luciferase reporter gene assay; type: cell-based, CV-1
T2 sequence (P55055 whole entry): T1 sequence (P55055 whole entry)

[5] = target: T3, Oxysterols receptor LXR-alpha (Homo sapiens, UniProt Q13133); test: Transactivation of LXRalpha (unknown origin) expressed in CV1 cells by luciferase reporter gene assay; type: cell-based, CV-1
T3 sequence (Q13133 whole entry): T1 sequence (Q13133 whole entry)

[6] = target: Retinoic acid receptor RXR-alpha/oxysterols receptor LXR-beta (Homo sapiens, UniProt P55055); test: Binding affinity to LXRbeta-RXRalpha heterodimer (unknown origin) expressed in insect cells by scintillation proximity assay
Mus musculus [7] = test: Elevation of hepatic triglyceride in C57BL/6 mouse at 30 mg/kg for 7 days measured 24 hrs post last dose relative to control; type: ADME, organism-based; set-up: dose 30 mg/kg; conditions: in vivo
[8] = target: Liver X receptor (Homo sapiens) (UniProt Q13133+P55055); test: Transactivation of LXR in human whole blood assessed as induction of ABCA1 after 4 hrs by SYBR-Green quantitative PCR analysis relative to 1-(2,4-difluorobenzyl)-2-oxo-6-(4-phenoxyphenyl)-4-(trifluoromethyl)-1,2-dihydropyridine-3-carbonitrile
Liver X receptor [9] = target: T1, Liver X receptor; test: Transactivation of LXR in human whole blood assessed as induction of ABCA1 after 4 hrs by SYBR-Green quantitative PCR analysis
[10] = Plasma concentration in mouse at 30 mg/kg, po measured at 24 hrs post dose; type: ADME, organism-based; set-up: dose 30 mg/kg, route oral
[11] = Drug uptake in mouse liver at 30 mg/kg, po measured at 24 hrs post dose; type: ADME, organism-based; set-up: dose 30 mg/kg, route oral; conditions: read-out: Drug uptake
[12] = Plasma concentration in mouse at 30 mg/kg, po measured at 4 hrs post dose; type: ADME, organism-based; set-up: dose 30 mg/kg, route oral
Mus musculus [13] = test: Elevation of plasma triglyceride in C57BL/6 mouse at 30 mg/kg for 7 days measured 24 hrs post last dose relative to control; type: ADME, organism-based; set-up: dose 30 mg/kg; conditions: in vivo
[14] = Plasma concentration in C57BL/6 mouse at 10 mg/kg, po measured at 5 hrs post dose; type: ADME, organism-based; set-up: dose 10 mg/kg, route oral
Mus musculus [15] = test: Induction of SREBP1c mRNA in C57BL/6 mouse liver at 10 mg/kg for 7 days measured 24 hrs post last dose relative to control; type: organism-based; set-up: dose 10 mg/kg; conditions: C57BL/6, 24 h, read-out: FC
Mus musculus [16] = test: Elevation of hepatic triglyceride in C57BL/6 mouse at 3 to 30 mg/kg for 7 days measured 24 hrs post last dose relative to control; type: ADME, organism-based; set-up: dose 3-30 mg/kg; conditions: in vivo
Mus musculus [17] = test: Induction of ABCG1 mRNA induction in C57BL/6 mouse blood cells at 3 to 30 mg/kg for 7 days measured 5 hrs post last dose relative to control; type: functional, organism-based
[18] = Plasma concentration in C57BL/6 mouse at 3 mg/kg, po measured at 5 hrs post dose; type: ADME, organism-based; set-up: dose 3 mg/kg, route oral
Mus musculus [19] = test: Elevation of plasma triglyceride in C57BL/6 mouse at 3 to 10 mg/kg for 7 days measured 24 hrs post last dose relative to control; type: ADME, organism-based; set-up: dose 3-10 mg/kg; conditions: in vivo
Mus musculus [20] = test: Induction of ABCA1 mRNA induction in C57BL/6 mouse blood cells at 3 to 30 mg/kg for 7 days measured 5 hrs post last dose relative to control; type: functional, organism-based
[21] = Plasma concentration in C57BL/6 mouse at 30 mg/kg, po measured at 5 hrs post dose; type: ADME, organism-based; set-up: dose 30 mg/kg, route oral

Chain of Retinoic acid receptor RXR-alpha/oxysterols receptor LXR-alpha (P19793 whole entry, one chain of several): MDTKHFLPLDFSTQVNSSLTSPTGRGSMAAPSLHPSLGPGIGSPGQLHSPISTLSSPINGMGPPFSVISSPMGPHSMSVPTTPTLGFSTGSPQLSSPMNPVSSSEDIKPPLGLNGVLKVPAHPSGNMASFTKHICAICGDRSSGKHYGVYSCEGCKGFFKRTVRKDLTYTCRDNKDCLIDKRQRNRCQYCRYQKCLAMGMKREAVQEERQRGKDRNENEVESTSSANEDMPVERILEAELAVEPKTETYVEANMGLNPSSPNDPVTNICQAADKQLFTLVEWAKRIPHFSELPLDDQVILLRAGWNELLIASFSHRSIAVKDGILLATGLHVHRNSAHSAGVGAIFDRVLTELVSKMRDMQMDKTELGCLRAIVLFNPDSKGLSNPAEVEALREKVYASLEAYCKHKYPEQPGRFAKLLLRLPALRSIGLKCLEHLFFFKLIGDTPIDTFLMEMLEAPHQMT
Chain of Retinoic acid receptor RXR-alpha/oxysterols receptor LXR-beta (P19793 whole entry, one chain of several): as above

concentration at 24 h [10]: 300 nM | EC50 (Liver X receptor [2]): 38 nM | Ki [3]: 300 nM | EC50 [4]: 230 nM | concentration at 24 h [11]: 1000 nM | concentration at 4 h [12]: 6600 nM | EC50 [5]: 320 nM | Ki [6]: 31 nM
Compound: CS(=O)(=O)c1cccc(-c2cccc(-c3cc(C(F)(F)F)nn3-c3ccccc3Cl)c2)c1

EC50 (Liver X receptor [2]): 310 nM | Ki [3]: 150 nM | EC50 [4]: 64 nM | EC50 [5]: 65 nM | Ki [6]: 10 nM
Compound: COC(=O)c1cc(-c2ccc(-c3cccc(S(C)(=O)=O)c3)s2)n(-c2ccccc2Cl)n1

concentration at 24 h [10]: 4100 nM | EC50 (Liver X receptor [2]): 8 nM | Ki [3]: 240 nM | EC50 [4]: 68 nM | concentration at 4 h [12]: 6900 nM | EC50 [5]: 120 nM | Ki [6]: 16 nM
Compound: CS(=O)(=O)c1cccc(-c2ccc(-c3cc(C(F)(F)F)nn3-c3ccccc3C(F)(F)F)s2)c1

EC50 (Liver X receptor [2]): 9 nM | Ki [3]: 68 nM | EC50 [4]: 110 nM | EC50 [5]: 140 nM | Ki [6]: 12 nM
Compound: CS(=O)(=O)c1cccc(-c2ccc(-c3cc(C(F)(F)F)nn3-c3ccccc3Cl)s2)c1

EC50 (Liver X receptor [2]): 800 nM | Ki [3]: 1500 nM | EC50 [4]: 620 nM | EC50 [5]: 540 nM | Ki [6]: 83 nM
Compound: CC(C)(O)c1cc(-c2ccc(-c3cccc(S(C)(=O)=O)c3)s2)n(-c2ccccc2Cl)n1

Efficacy [8]: 49% | EC50 (Liver X receptor [9]): 480 nM | concentration at 24 h [10]: 400 nM | EC50 (Liver X receptor [2]): 13 nM | Ki [3]: 180 nM | EC50 [4]: 49 nM | concentration at 24 h [11]: 7800 nM | concentration at 4 h [12]: 600 nM | EC50 [5]: 220 nM | Ki [6]: 13 nM
Compound: CS(=O)(=O)c1cccc(-c2ccc(-c3cc(C(F)(F)F)nn3-c3ccccc3Cl)cc2)c1

Further lines, the compound ahead of its results:

Compound: Cc1cc(CC(=O)O)ccc1-c1ccc(-c2cc(C(F)(F)F)c(C#N)c(=O)n2Cc2ccc(F)cc2F)s1
fold induction at 30 mg/kg (Mus musculus [1]): 7.7 | EC50 (Liver X receptor [2]): 40 nM | Ki [3]: 36 nM | EC50 [4]: 320 nM | EC50 [5]: 570 nM | Ki [6]: 9 nM | fold change (FC) (Mus musculus [7]): 4.8

Compound: CC(C)(O)c1cn(-c2ccc(-c3cccc(S(C)(=O)=O)c3)cc2)c(Cc2ccccc2C(F)(F)F)n1
Efficacy [8]: 30% | EC50 (Liver X receptor [9]): 3100 nM | concentration at 24 h [10]: 20 nM | EC50 (Liver X receptor [2]): 27 nM | Ki [3]: 66 nM | EC50 [4]: 140 nM | concentration at 24 h [11]: 200 nM | concentration at 4 h [12]: 6000 nM | EC50 [5]: 200 nM | Ki [6]: 7 nM

Compound: CS(=O)(=O)c1cccc(-c2ccc(-c3cc(C(F)(F)F)c(C#N)c(=O)n3Cc3ccc(F)cc3F)s2)c1
Ki [3]: 11 nM | EC50 [4]: 2 nM | EC50 [5]: 4 nM | Ki [6]: 11 nM

Compound: CC(C)(O)c1cn(-c2ccc(-c3cccc(S(C)(=O)=O)c3)cc2)c(C(C)(C)c2ccccc2Cl)n1 [BMS-779788]
Efficacy [8]: 55% | Activity (Mus musculus [13]): 74% | concentration at 5 h [14]: 200 nM | EC50 (Liver X receptor [9]): 1200 nM | fold induction at 30 mg/kg (Mus musculus [1]): 3.5 | concentration at 24 h [10]: 40 nM | EC50 (Liver X receptor [2]): 33 nM | Ki [3]: 68 nM | EC50 [4]: 250 nM | concentration at 24 h [11]: < 50 nM | concentration at 4 h [12]: 5400 nM | fold induction at 10 mg/kg (Mus musculus [15]): 2.7 | Activity (Mus musculus [16]): Non-toxic | Activity (Mus musculus [17]): Active | EC50 [5]: 230 nM | concentration at 5 h [18]: 50 nM | Activity (Mus musculus [19]): Non-toxic | Ki [6]: 14 nM | Activity (Mus musculus [20]): Active | concentration at 5 h [21]: 2000 nM | Activity (Mus musculus [7]): Non-toxic

Compound: CS(=O)(=O)c1cccc(-c2ccc(-c3cc(C(F)(F)F)nn3Cc3ccc(F)cc3F)s2)c1
Ki [3]: 20 nM | EC50 [4]: 14 nM | EC50 [5]: 18 nM | Ki [6]: 7 nM

Compound: CC(C)(O)c1cn(-c2ccc(-c3cccc(S(C)(=O)=O)c3)cc2)c(-c2ccccc2Cl)n1
Efficacy [8]: 31% | EC50 (Liver X receptor [9]): 8300 nM | concentration at 24 h [10]: 2000 nM | EC50 (Liver X receptor [2]): 140 nM | Ki [3]: 1600 nM | EC50 [4]: 600 nM | concentration at 24 h [11]: 13200 nM | concentration at 4 h [12]: 14000 nM | EC50 [5]: > 10000 nM | Ki [6]: 59 nM

Compound: CS(=O)(=O)c1cccc(-c2ccc(-n3cc(C(F)(F)F)nc3-c3ccccc3Cl)cc2)c1
concentration at 24 h [10]: 2300 nM | EC50 (Liver X receptor [2]): 5 nM | Ki [3]: 61 nM | EC50 [4]: 61 nM | concentration at 24 h [11]: 32000 nM | concentration at 4 h [12]: 1200 nM | EC50 [5]: 52 nM | Ki [6]: 11 nM

Compound: CC(C)(O)c1cn(-c2ccc(-c3cccc(S(C)(=O)=O)c3)cc2)c(Cc2ccccc2Cl)n1
Efficacy [8]: 62% | EC50 (Liver X receptor [9]): 3200 nM | concentration at 24 h [10]: 400 nM | EC50 (Liver X receptor [2]): 12 nM | Ki [3]: 25 nM | EC50 [4]: 66 nM | concentration at 24 h [11]: 1500 nM | concentration at 4 h [12]: 1300 nM | EC50 [5]: 85 nM | Ki [6]: 1 nM

Compound: CC(C)(O)c1cn(-c2ccc(-c3cccc(S(C)(=O)=O)c3)cc2)c(-c2c(Cl)cccc2Cl)n1
Efficacy [8]: 38% | EC50 (Liver X receptor [9]): 7000 nM | concentration at 24 h [10]: 600 nM | EC50 (Liver X receptor [2]): 140 nM | Ki [3]: 2500 nM | EC50 [4]: 670 nM | concentration at 24 h [11]: 4400 nM | concentration at 4 h [12]: 18500 nM | EC50 [5]: > 10000 nM | Ki [6]: 54 nM

Compound: N#Cc1c(C(F)(F)F)cc(-c2ccc(Oc3ccccc3)cc2)n(Cc2ccc(F)cc2F)c1=O
EC50 (Liver X receptor [2]): 7 nM | Ki [3]: 26 nM | EC50 [4]: 20 nM | EC50 [5]: 20 nM | Ki [6]: 9 nM
